Columns and labels:
Type in all cases: in vivo
[1] = tested on: Blumeria graminis f.sp. tritici; assay: Greenhouse wheat powdery mildew (WPM) 2 day curative disease control; settings: Table I; adjuvant alone, NOP 1000 ppm, BB-4 0 ppm
Excerpt: (§1) Greenhouse Evaluations for Fungicidal Efficacy Disease: Wheat powdery mildew (WPM). Pathogen: Blumeria graminis f.sp. tritici Test Procedure: 1. Wheat seed is planted in plastic pots and maintained in the greenhouse. 2. When the primary leaf (wheat) is fully expanded, formulated test compounds and adjuvants are sprayed with a single nozzle overhead track sprayer at a rate of 200 l/ha. Plants are then allowed to air-dry. 3. Inoculation precedes treatment by 2 days in the case of curative evaluations and follows treatment by 3-4 days in case of residual evaluations. For inoculation, plants are set up on greenhouse benches with bottom watering mats and inoculated by dusting them with conidia from powdery mildew infected plants (stock cultures at an age of 10-14 days). Between inoculation and treatment for curative evaluations and between treatment and inoculation for residual evaluations, plants are maintained in the greenhouse with bottom watering. 4. Disease on the primary leaf (wheat) as percent leaf area with disease symptoms/signs is evaluated about 7 days after inoculation. In the case of wheat, the tips and bases of the leaves are excluded from the evaluation. Percent disease control is then calculated by the following is formula: [formula] Formulation, Reference Compounds and Controls: 1. Formulated compounds are diluted using deionized water. 2. […]

[2] = tested on: Blumeria graminis f.sp. tritici; assay: Greenhouse wheat powdery mildew (WPM) 4 day residual disease control; settings: adjuvant alone, NOP 1000 ppm, BB-4 0 ppm
Excerpt: as §1

[3] = tested on: Blumeria graminis f.sp. tritici; assay: Greenhouse wheat powdery mildew (WPM) antisporulation test; set-up: key: +++: complete (no spore release); ++: strong; +: moderate; none; settings: Table III; adjuvant alone, NOP 1000 ppm, BB-4 0 ppm
Excerpt: Greenhouse Evaluations for Fungicidal Efficacy Disease: Wheat powdery mildew (WPM). Pathogen: Blumeria graminis f.sp. tritici Test Procedure: 1. Wheat seed is planted in plastic pots and maintained in the greenhouse. 2. When the primary leaf (wheat) is fully expanded, formulated test compounds and adjuvants are sprayed with a single nozzle overhead track sprayer at a rate of 200 l/ha. Plants are then allowed to air-dry. 3. Inoculation precedes treatment by 2 days in the case of curative evaluations and follows treatment by 3-4 days in case of residual evaluations. For inoculation, plants are set up on greenhouse benches with bottom watering mats and inoculated by dusting them with conidia from powdery mildew infected plants (stock cultures at an age of 10-14 days). Between inoculation and treatment for curative evaluations and between treatment and inoculation for residual evaluations, plants are maintained in the greenhouse with bottom watering. In antisporulation tests, inoculation preceeds compound application by three days. Scale for Anti-Sporulation Effect: +++=complete (no spore release); ++=strong; +=moderate; o=none.

CCCCCCCCN1CCCC1=O [NOP, N-octylpyrrolidone]
WPM 2 day Curative Disease Control (%) [1]: 14%
WPM 4 day Residual Disease Control (%) ([2]; Table I): 9%
WPM 4 day Residual Disease Control (%) ([2]; Table III): 0%
WPM Antisporulation Effect [3]: o
